Laboratory results: patent publication EP1487791B1, “A NOVEL ANTIFUNGAL MOLECULE 2-(3,4-DIMETHYL-2,5-DIHYDRO-1H-PYRROL-2-YL)- METHYLETHYL PENTANOATE” (priority 2002, dated 2003)
≈ marks a conversion by molar mass, not a printed value.

Assays:
Type in all cases: cell-based
Aspergillus = assay: Disc diffusion assay, overall result for Aspergillus; settings: concentration developing zone of inhibition of 6.0-mm diameter
Protocol: (§1) Pathogenic strains of fungi were obtained from the Mycology Department of Vallabhbhai Patel Chest Institute, Delhi. All the strains were grown on Sabouraud dextrose agar at 37°C. The conidia form these cultures were harvested and suspended in Sabouraud maltose broth. The number of conidia was counted using haemocytometer and their number in the suspension was adjusted to as per need of the experiment.
The leftover residue was finally dissolved in methanol. Dried fractions were examined for their antifungal activity.
The disc diffusion test was performed as per described in the section of details of invention. Amphotericin B 1.25 µg/disc was used in assay as positive control standard drug. Additional discs impregnated with equivalent amount of solvent were also used in the assay as negative controls (Fig: 5). […] Table 2: Antifungal activity of compound by disc diffusion method

A. niger = assay: Microbroth dilution assay; design: key: +ve if medium appeared clear with out any growth of fungi; -ve if growth was there
Protocol: as §1
(§2) The antifungal susceptibility of the fungi to various fractions or the purified component was assayed by the microbroth, dilution method (Forthergill A.W. and McGough A.W., 1995, Clin. Microbiol. Procedure Handbook. In Vitro susceptibility Testing of Yeast, 5.15.1-5.15.15). The fungal spores were harvested from 96-h cultures and their number adjusted to 1x10^6 per ml. The Sabouraud Dextrose medium was dissolved in glass double distilled water and autoclaved at 10 psi for 15 min. 90-µl medium was added into the wells of cell culture plates. The different concentrations of the extract, fractions or the purified compound were prepared in duplicate wells and then the wells were inoculated with 10 µl of spore suspension. The plates were incubated at 37°C and examined macroscopically after 48 h for the growth of fungal mycelia. The activity was represented as -ve if growth was there and +ve if medium appeared clear with out any growth of fungi.
(§3) The antifungal susceptibility of the fungi to the purified compound was assayed by the microbroth dilution method. The different concentrations of the purified compound ranging from 21.87 to 350 µg/ml were prepared in duplicate wells by twofold dilution method. The test was done as described above. […] Table 1: Activity of the compound against Aspergillus sp. after 48 hrs.

A.flavus = assay: Microbroth dilution assay; design: key: +ve if medium appeared clear with out any growth of fungi; -ve if growth was there
Protocol: as §1, §2, §3

A. fumigatus = assay: Microbroth dilution assay; design: key: +ve if medium appeared clear with out any growth of fungi; -ve if growth was there
Protocol: as §1, §2, §3

Aspergillus species = assay: Spore germination inhibition assay; settings: percent spore germination inhibition, 10 hrs at 37° C
Protocol: as §1
The modified spore germination inhibition assay was performed as described earlier (Sureder P. and Janaiah C., 1987, Ind. J. Expt. Biol., 25, 233-234). The fungal species were grown on Sabouraud dextrose agar plates at 37°C for 96 h. […] The conidia were counted and their number in the suspension was adjusted to 1x10^4 per ml. The standard drug Amphotericin B and test samples were initially dissolved in minimal quantity of dimethylsulfoxide (DMSO) and then diluted with Sabouraud dextrose medium. […] The number of germinated and non-germinated spores was counted. The percent spore germination inhibition (PSGI) was calculated using following formula PSGI = 100-(No.of spores germinated in drug treated well)/(No.of spores germinated in control well) [formula] […]
The spore germination inhibition assay was performed to evaluate the activity of the compound. […] The number of germinated and non-germinated spores was counted and the percent spore germination inhibition (PSGI) was calculated. […]

`CCCCC(=O)OC(C)CC1NCC(C)=C1C` (stereo not drawn) [PC-1, 2-(3,4-dimethyl-2,5-dihydro-1H-pyrrol-2-yl)-1-methylethyl pentanoate] was tested, and the MIC (Aspergillus) was 5 µg/disc, the MIC (Aspergillus; listed as novel antifungal lead molecule) was 5.0 µg/disc and the “Activity against Aspergillus sp. after 48 hrs” value (“Activity” for short) (A. niger; 21.87 µg/ml) was “-”. The “Activity” value (A. niger; 43.75 µg/ml) was “-”, the “Activity” value (A. niger; 87.50 µg/ml) was “+” and the “Activity” value (A. niger; 175.00 µg/ml) was “+”. The “Activity” value (A. niger; 350.00 µg/ml) was “+”, the “Activity” value (A.flavus; 21.87 µg/ml) was “-” and the “Activity” value (A.flavus; 43.75 µg/ml) was “-”. The “Activity” value (A.flavus; 87.50 µg/ml) was “+”, the “Activity” value (A.flavus; 175.00 µg/ml) was “+” and the “Activity” value (A.flavus; 350.00 µg/ml) was “+”. For the same compound, the “Activity” value (A. fumigatus; 21.87 µg/ml) was “-”, the “Activity” value (A. fumigatus; 43.75 µg/ml) was “-” and the “Activity” value (A. fumigatus; 87.50 µg/ml) was “+”. For the same compound, the “Activity” value (A. fumigatus; 175.00 µg/ml) was “+”, the “Activity” value (A. fumigatus; 350.00 µg/ml) was “+” and the MIC (Aspergillus species) was 87.5 mg/L (≈ 366 µM).
